One assay concerns the target T1, CDK4/Cyclin D1 (Homo sapiens, UniProt P11802).
T1 construct: CDK4 amino acids 1–303; made in house; host or cells: Sf21 (Spodoptera frugiperda) insect cells, baculovirus co-infection, vector pVL1393
Description: CDK inhibition assay (Scintillation Proximity Assay, GST-Retinoblastoma substrate). It counts as biochemical. The note with it: in-vitro SPA kinase assay, CDK4/Cyclin D1, GST-Rb substrate; read-out: CDK4 inhibitory activity IC50. The protocol:
The compounds were tested in an in vitro kinase assay in 96 well format using Scintillation Proximity Assay (SPA—obtained from Amersham) for measuring incorporation of [γ-33-P]-Adenosine Triphosphate into a test substrate (GST-Retinoblastoma). In each well was placed the compound to be tested (diluted in DMSO and water to correct concentrations) and in control wells either p16 as an inhibitor control or DMSO as a positive control.
Approximately 0.5 μl of CDK4/Cyclin D1 partially-purified enzyme (amount dependent on enzyme activity) diluted in 25 μl incubation buffer was added to each well then 20 μl of GST-Rb/ATP/ATP33 mixture (containing 0.5 μg GST-Rb and 0.2 μM ATP and 0.14 μCi [γ-33-P]-Adenosine Triphosphate), and the resulting mixture shaken gently, then incubated at room temperature for 60 minutes.
To each well was then added 150 μL stop solution containing (0.8 mg/well of Protein A-PVT SPA bead (Amersham)), 20 pM/well of Anti-Glutathione Transferase, Rabbit IgG (obtained from Molecular Probes), 61 mM EDTA and 50 mM HEPES pH 7.5 containing 0.05% sodium azide.
The plates were sealed with Topseal-S plate sealers, left for two hours then spun at 2500 rpm, 1124×g., for 5 minutes. The plates were read on a Topcount for 30 seconds per well. […]
For orientation: SPA uses beads or plates that emit light when radiolabelled molecules are held near them.

For assay [1], the target named is T2, human Focal Adhesion Kinase (FAK) (Homo sapiens, UniProt Q05397).
T2 construct: FAK (full length human cDNA described by Andre et al); made in house; host or cells: Sf21 (Spodoptera frugiperda) insect cells, baculovirus (pFastbac 1)
T2 sequence (Q05397 whole entry): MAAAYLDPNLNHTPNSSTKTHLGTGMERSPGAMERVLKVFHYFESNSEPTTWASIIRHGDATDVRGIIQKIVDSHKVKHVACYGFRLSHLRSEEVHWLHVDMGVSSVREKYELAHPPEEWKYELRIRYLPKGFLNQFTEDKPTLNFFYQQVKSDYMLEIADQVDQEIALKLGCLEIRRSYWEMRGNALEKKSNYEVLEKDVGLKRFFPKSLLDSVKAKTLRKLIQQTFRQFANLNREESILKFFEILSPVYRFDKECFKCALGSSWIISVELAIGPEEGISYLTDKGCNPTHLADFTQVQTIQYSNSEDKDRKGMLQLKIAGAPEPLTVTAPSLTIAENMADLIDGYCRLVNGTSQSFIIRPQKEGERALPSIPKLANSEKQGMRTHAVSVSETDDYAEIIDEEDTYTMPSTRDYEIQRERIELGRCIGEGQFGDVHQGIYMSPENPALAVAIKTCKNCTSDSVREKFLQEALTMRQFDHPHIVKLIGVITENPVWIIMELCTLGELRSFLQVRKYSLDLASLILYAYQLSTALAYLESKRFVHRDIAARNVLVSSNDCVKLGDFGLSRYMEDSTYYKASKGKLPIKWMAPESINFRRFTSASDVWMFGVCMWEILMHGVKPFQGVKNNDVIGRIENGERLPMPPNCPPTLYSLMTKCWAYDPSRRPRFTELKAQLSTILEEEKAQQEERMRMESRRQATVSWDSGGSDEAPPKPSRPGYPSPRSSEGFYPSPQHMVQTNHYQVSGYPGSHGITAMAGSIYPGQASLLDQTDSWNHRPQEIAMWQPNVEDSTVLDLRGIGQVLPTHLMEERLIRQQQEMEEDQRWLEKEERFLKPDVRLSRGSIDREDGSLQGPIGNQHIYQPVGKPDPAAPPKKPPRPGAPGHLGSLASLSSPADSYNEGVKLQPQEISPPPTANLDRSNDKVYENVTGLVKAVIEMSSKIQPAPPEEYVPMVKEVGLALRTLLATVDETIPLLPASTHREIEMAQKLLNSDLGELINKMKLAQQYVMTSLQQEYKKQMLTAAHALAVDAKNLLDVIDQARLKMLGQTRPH
Description: FAK3 kinase inhibition assay (in vitro enzyme ELISA). It is filed as biochemical. Particulars: Poly (Glu, Ala, Tyr) substrate, read-out: FAK inhibitory activity IC50. How it is done:
A stock of substrate solution was prepared from a random copolymer containing tyrosine, for example Poly (Glu, Ala, Tyr) 6:3:1 (Sigma P3899), stored as 1 mg/ml stock in PBS at −20° C. and diluted 1 in 500 with PBS for plate coating.
The liquid was then discarded and the wells were washed twice with PBST.

The structures appear in SMILES notation.

T1 sequence (P11802 whole entry, the tested form may be a part): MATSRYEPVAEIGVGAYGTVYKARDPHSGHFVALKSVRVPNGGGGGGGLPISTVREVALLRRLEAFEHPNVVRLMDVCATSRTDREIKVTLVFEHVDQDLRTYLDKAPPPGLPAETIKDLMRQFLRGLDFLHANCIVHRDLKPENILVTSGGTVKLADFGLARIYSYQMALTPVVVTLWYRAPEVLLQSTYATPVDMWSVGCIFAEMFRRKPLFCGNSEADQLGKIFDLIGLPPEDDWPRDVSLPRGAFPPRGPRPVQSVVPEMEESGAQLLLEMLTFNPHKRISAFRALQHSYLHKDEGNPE
T1 sequence (P24385 whole entry partner, the tested form may be a part): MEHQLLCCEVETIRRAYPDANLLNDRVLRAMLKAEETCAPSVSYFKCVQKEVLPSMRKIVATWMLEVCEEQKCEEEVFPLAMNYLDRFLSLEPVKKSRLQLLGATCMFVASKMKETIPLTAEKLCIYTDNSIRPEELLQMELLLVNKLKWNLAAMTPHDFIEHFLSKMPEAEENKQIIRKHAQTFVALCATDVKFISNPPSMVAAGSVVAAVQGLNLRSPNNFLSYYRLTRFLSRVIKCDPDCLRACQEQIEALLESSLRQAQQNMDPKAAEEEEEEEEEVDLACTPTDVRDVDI

Usually IC50 stands for the concentration at which inhibition is half-maximal. Regarding `Cc1ccc(Nc2ccnc(Nc3ccc(OCC(O)CN(C)C)cc3)n2)c(Br)c1` (stereo not drawn) [Example 3, 2-{4-[3-(N,N-Dimethyl)amino-2-hydroxy-propoxy]anilino}-4-(2-bromo-4-methylanilino)pyrimidine], the IC50 amounted to 600 nM on CDK4/Cyclin D1 and 3.3 µM in assay [1].
For `CN(C)CC(O)COc1ccc(Nc2nccc(Nc3cc(Cl)ccc3Cl)n2)cc1` (stereo not drawn) [Example 11, 2-{4-[3-(N,N-Dimethyl)amino-2-hydroxy-propoxy]anilino}-4-(2,5-dichloroanilino)pyrimidine], the IC50 on CDK4/Cyclin D1 turned out to be 530 nM.

The record behind these values is US7176212B2, “2,4-diamino pyrimidine compounds having anti-cell proliferative activity” (AstraZeneca AB, priority 1998, dated 2007).
